Measurements: article PMC5478271, “Chemical structure-guided design of dynapyrazoles, cell-permeable dynein inhibitors with a unique mode of action” (eLife, 2017)

How the values were obtained:
His-dynein 1 = target: T1, His-dynein 1 (Homo sapiens, UniProt Q14204); assay: Ultraviolet light and ADP-vanadate-dependent photocleavage of dynein; format: biochemical; details: 4 µM compound
T1 construct: (wild-type, K1912A, K2601A, AA 1320–4646, uniprot: Q14204); made in house; host or cells: Sf9 insect cells (baculovirus)
Protocol: Thirty-microliter reactions were prepared in 96-well plates as follows. ATPase buffer was supplemented with concentrated stocks of His-dynein 1 (90nM final), compound 8 (4µM final) or an equivalent amount of solvent carrier (3.3% DMSO), followed by a 10 min incubation at room temperature. ATP (0.1 mM final) was added and the mixtures were incubated 5 min at room temperature. NaVO3 (0.1 mM final) was added and the mixtures were again incubated 5 min at room temperature. Vanadate was deliberately omitted from one well. The plate was then transferred to ice and irradiated with 365 nm light for 15 min with the lamp positioned 10 cm above the plate(Spectroline Maxima ML-3500S lamp). Following addition of SDS-PAGE loading buffer and heating (95°, 5 min), individual reactions were resolved on hand-poured 8% tris-glycine polyacrylamide gels. Gels were stained (Coomassie blue), imaged using a Li-Cor Odyssey, and band intensities were analyzed using FIJI.
Quantification of ADP-vanadate dependent photocleavage of dynein was performed as follows: Scanned gels were analyzed with FIJI, and fraction cleaved quantified as follows:
Fraction cleaved = (intensity of band at 250 kDa) /
(intensity of band at 250 kDa + intensity of band at ~350 kDa)

IMCD3 cells = assay: Cellular ATP content (CellTiter-Glo cytotoxicity assay); format: cell-based, murine
Protocol: Murine inner medullary collecting duct (IMCD3) cells stably expressing mNeonGreen-IFT88 (described previously [[Ye et al., 2013]]) were maintained in DMEM/F12 supplemented with 10% FBS. Cell line identity was confirmed by the proper localization and motility of mNeonGreen IFT88 puncta, in reference to published analyses from our groups and from the work of others ([Ye et al., 2013]; [Yang et al., 2015]). Cells were seeded in a 96-well plate at a density of 5 × 10^3 cells/well. Following overnight incubation, low-serum media (0.2% FBS) containing solvent control (0.3% DMSO) or compound. At fixed time points, CellTiter-Glo 2.0 (Promega) reagent was added to the wells, mixed by pipetting, and transferred to a white, opaque 96-well plate. After a 10 min incubation, luminescence for each condition was read using a Synergy Neo plate reader (1 s integration time per well).

[1] = system: IMCD3 cells stably expressing mNeonGreen-IFT88; assay: Intraflagellar transport assay (mNeonGreen-IFT88 particles in primary cilia); format: cell-based, murine
Excerpt: To quantitatively assess the effect of dynapyrazole-A treatment on intraflagellar transport, we analyzed time-lapse images of cilia using KymographDirect, an automated analysis algorithm that extracts particle velocities from kymographs ([Mangeol et al., 2016]). […] Under control conditions (0.3% DMSO, Figure 4B), anterograde particles moved with a speed of 694 ± 117 nm/s (Figure 4D and F, mean ± S.D., 429 particles, 38 cilia) and retrograde particles moved at 421 ± 156 nm/s (Figure 4D and F, 244 particles, 38 cilia), consistent with previous studies ([Ye et al., 2013]). […] After 10 min of treatment, reductions in velocities were similar to those at the 5 min time point (Figure 4—figure supplement 1). Treatment of cilia with a higher dynapyrazole-A concentration (10 µM) slowed both retrograde- and anterograde-directed motion (Figure 4—figure supplement 2). […] We note that dynapyrazole-A, at concentrations close to the IC50 for inhibiting microtubule gliding in vitro, alters intraflagellar transport in a manner similar to what has been observed following dynein 2 loss-of-function in Chlamydomonas ([Engel et al., 2012]).
Murine inner medullary collecting duct (IMCD3) cells stably expressing mNeonGreen-IFT88 were maintained in DMEM/F12 supplemented with 10% FBS. Cells were typically passaged fewer than 10 times following thawing of frozen stocks. Cells were described previously ([Ye et al., 2013]). 6 × 10^5 cells were seeded onto 22-mm coverslips in a six well plate and incubated for 24 hr at 37°C. The media was then replaced with DMEM/F12 +0.2% FBS and cells were incubated 24 hr to promote cilium formation. Immediately prior to imaging, media was replaced with phenol red-free media (Leibovitz's L-15 + 0.2% FBS) containing either carrier solvent control (0.3% DMSO) or compound. IFT88 transport was observed using a TE2000-E spinning disk confocal microscope (Nikon PlanApo 100x/1.45 objective lens) fitted with a Photometrics Cascade II (EMCCD 512) camera and imaged at a frame rate of 2 frames/s. Kymographs were generated in FIJI using KymographClear and the velocities of mNeonGreen-IFT88 foci movement were quantified by KymographDirect ([Mangeol et al., 2016]). The algorithm used to identify IFT88 foci could identify particles with velocitities ≥ 25nm/s as moving particles.
For washout experiments, cells were exposed to a 5-min compound treatment as described above. Cells were then washed twice with 5 mL of L-15 supplemented with 10% FBSand 0.3% DMSO. A 5-min incubation followed each wash. Imaging was performed as described above immediately after the second 5-min wash and incubation step had been completed. For washout experiments shown in Figure 4—figure supplement 3, wash steps were performed with either L-15 supplemented with 10% FBS or L-15 supplemented with 0.2% FBS. Following washout of compound, cells were incubated at 37° for 60-min and then imaged.
Statistical analysis of intraflagellar transport frequencies: Run frequencies output directly from KymographDirect were tabulated across all cilia imaged in a given condition (see Figure 4—figure supplement 2). For each of two experimental conditions (5 µM 8, 10 µM 8) and the respective controls, an un-paired T-test was performed for the difference of means control and compound treatment. This analysis was performed for each direction of motion.

[2] = 5 µM 5 min, then washout 10 min in 10% FBS, 0.3% DMSO
[3] = 5 µM, then 0.2% FBS washout for 1 hr
[4] = 5 µM, then 10% FBS washout for 1 hr

T1 sequence (Q14204 1320-4646): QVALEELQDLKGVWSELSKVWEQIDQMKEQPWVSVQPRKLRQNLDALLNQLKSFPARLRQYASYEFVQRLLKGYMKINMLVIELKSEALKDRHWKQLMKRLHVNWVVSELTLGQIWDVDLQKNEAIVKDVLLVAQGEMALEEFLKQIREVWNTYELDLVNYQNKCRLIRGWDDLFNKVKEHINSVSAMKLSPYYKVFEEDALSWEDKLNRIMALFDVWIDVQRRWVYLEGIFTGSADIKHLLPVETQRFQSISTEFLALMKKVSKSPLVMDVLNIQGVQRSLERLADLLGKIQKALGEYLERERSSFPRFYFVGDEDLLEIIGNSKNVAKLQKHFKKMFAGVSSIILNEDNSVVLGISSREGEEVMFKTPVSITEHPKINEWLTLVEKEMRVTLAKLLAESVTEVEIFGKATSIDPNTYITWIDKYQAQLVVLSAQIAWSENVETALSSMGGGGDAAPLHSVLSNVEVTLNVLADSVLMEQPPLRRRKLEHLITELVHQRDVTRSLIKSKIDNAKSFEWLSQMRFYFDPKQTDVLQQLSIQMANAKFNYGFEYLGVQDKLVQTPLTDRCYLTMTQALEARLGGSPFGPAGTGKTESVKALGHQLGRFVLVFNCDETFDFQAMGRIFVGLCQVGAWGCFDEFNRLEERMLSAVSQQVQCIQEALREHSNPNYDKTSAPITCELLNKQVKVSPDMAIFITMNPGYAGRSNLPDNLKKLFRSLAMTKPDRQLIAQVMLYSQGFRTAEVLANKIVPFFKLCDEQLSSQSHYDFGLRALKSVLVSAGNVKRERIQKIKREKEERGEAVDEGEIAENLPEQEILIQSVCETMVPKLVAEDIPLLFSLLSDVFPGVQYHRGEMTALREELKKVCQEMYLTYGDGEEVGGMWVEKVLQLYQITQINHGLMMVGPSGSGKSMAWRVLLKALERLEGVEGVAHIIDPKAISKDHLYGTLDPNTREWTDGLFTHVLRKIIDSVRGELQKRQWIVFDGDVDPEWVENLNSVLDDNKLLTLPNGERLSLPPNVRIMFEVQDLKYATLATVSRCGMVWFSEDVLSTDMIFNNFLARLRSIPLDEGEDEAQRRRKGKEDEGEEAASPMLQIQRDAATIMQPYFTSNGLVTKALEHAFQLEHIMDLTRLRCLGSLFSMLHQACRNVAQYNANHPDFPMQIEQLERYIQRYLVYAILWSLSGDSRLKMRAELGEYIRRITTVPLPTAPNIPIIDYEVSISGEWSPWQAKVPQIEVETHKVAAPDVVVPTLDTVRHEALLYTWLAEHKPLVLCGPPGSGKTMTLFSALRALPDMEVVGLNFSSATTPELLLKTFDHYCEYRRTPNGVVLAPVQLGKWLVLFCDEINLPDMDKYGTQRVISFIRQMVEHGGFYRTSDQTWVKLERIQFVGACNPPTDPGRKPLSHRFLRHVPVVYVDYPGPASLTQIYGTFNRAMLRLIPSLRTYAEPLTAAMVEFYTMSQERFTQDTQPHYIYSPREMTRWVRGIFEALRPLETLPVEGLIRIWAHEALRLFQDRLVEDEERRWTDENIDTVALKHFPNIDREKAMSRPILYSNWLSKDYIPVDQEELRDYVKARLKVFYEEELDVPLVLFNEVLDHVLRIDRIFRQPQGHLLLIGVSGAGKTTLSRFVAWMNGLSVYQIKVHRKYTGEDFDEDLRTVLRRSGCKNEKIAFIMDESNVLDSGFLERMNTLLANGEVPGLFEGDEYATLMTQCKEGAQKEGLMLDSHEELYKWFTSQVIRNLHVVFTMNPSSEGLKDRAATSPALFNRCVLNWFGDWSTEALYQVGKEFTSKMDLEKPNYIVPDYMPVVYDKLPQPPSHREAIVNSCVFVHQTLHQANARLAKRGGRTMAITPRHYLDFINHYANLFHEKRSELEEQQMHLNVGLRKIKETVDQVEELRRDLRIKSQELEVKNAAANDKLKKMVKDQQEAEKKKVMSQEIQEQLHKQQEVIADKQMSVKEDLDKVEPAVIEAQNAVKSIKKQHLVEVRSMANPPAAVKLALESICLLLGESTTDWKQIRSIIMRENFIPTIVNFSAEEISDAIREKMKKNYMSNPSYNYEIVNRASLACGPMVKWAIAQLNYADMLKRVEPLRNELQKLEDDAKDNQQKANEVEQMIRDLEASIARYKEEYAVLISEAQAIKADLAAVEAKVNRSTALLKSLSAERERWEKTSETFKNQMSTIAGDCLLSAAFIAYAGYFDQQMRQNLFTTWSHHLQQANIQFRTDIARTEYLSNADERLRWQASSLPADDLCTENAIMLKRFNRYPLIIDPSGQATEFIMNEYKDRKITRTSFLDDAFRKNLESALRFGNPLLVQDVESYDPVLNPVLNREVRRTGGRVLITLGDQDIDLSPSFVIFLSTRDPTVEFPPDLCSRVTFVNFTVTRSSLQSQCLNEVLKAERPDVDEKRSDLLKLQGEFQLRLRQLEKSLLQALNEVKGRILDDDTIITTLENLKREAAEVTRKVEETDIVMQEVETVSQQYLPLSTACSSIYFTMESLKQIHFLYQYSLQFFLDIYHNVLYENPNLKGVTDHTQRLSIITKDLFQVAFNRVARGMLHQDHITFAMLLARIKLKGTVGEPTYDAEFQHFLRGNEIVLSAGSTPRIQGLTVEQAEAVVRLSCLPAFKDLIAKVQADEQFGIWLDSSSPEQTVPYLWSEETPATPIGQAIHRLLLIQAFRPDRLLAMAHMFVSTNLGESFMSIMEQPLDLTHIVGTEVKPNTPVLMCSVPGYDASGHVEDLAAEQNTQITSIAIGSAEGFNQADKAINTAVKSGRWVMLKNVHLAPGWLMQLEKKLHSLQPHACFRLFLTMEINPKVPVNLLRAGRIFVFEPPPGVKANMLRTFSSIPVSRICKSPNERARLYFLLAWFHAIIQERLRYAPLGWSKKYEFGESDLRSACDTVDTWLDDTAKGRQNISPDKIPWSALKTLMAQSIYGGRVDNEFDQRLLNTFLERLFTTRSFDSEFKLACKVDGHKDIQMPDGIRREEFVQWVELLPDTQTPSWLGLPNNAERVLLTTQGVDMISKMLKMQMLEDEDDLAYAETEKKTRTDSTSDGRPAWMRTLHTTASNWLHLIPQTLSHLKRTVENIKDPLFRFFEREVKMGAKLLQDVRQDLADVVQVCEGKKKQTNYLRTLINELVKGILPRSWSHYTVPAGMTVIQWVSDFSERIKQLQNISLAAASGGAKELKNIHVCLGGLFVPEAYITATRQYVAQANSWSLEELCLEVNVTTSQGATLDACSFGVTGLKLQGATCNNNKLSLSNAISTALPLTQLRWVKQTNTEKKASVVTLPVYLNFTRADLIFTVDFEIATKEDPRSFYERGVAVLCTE

N#Cc1c(C2(c3ccc(Cl)cc3)CC2)nn2c1[nH]c(=O)c1cc(I)ccc12 [Compound 8, 2-[1-(4-chlorophenyl)cyclopropyl]-7-iodo-5-oxo-4H-pyrazolo[1,5-a]quinazoline-3-carbonitrile]
Reduction of ADP-vanadate dependent photocleavage relative to controls (His-dynein 1): ~ 2.5 fold | ADP-vanadate dependent photocleavage of His-dynein 1 (His-dynein 1; 100 µM ATP, 100 µM vanadate, control 42 ± 3%): 17 ± 2% | ATP levels in cells (IMCD3 cells; 5 µM, low-serum or serum-free media): stable for up to 3 hr | Lowering of intracellular ATP levels (IMCD3 cells; 15 µM, at 3 hr): ~ 70% | Fa, anterograde frequency after washout [1, 2]: 14.2 ± 6 counts/minute | Fr, retrograde frequency after washout [1, 2]: 9.6 ± 7 counts/minute | Va, anterograde velocity after washout [1, 2]: 697 ± 149 nm/s | Vr, retrograde velocity after washout [1, 2]: 467 ± 136 nm/s | Reduction of anterograde particle velocities ([1]; 5 µM, 5 min, versus DMSO control): ~ 18% | Fr, retrograde frequency ([1]; 5 µM, 5 min, DMSO control 6.5 ± 4): 4.1 ± 3 counts/minute | Fa, anterograde frequency ([1]; 5 µM, 5 min, DMSO control 11.3 ± 3): 8.5 ± 5 counts/minute | Vr, retrograde velocity ([1]; 5 µM, 5 min, DMSO control 421 ± 156): 156 ± 107 nm/s | Va, anterograde velocity ([1]; 5 µM, 5 min, DMSO control 694 ± 117): 566 ± 116 nm/s | Fr, retrograde frequency ([1]; 5 µM, 10 min, DMSO control 5.9 ± 3): 4.2 ± 3 counts/minute | Fa, anterograde frequency ([1]; 5 µM, 10 min, DMSO control 10.2 ± 3): 6.9 ± 4 counts/minute | Vr, retrograde velocity ([1]; 5 µM, 10 min, DMSO control 354 ± 134): 202 ± 180 nm/s | Va, anterograde velocity ([1]; 5 µM, 10 min, DMSO control 655 ± 124): 572 ± 121 nm/s | Fa, anterograde frequency after low-serum washout [1, 3]: 10.1 ± 4 counts/minute | Fr, retrograde frequency after low-serum washout [1, 3]: 5.2 ± 2 counts/minute | Va, anterograde velocity after low-serum washout [1, 3]: 620 ± 134 nm/s | Vr, retrograde velocity after low-serum washout [1, 3]: 219 ± 117 nm/s | Fa, anterograde frequency after high-serum washout [1, 4]: 18.8 ± 5 counts/minute | Fr, retrograde frequency after high-serum washout [1, 4]: 12.4 ± 6 counts/minute | Va, anterograde velocity after high-serum washout [1, 4]: 660 ± 112 nm/s | Vr, retrograde velocity after high-serum washout [1, 4]: 441 ± 156 nm/s | Fa, anterograde frequency ([1]; 10 µM): 6.8 ± 4 counts/minute | Fr, retrograde frequency ([1]; 10 µM): 4.0 ± 2 counts/minute | Va, anterograde velocity ([1]; 10 µM): 466 ± 183 nm/s | Vr, retrograde velocity ([1]; 10 µM): 121 ± 78 nm/s
